Assay results: patent US9259438B2, “Methods for in vitro maturation of ovarian follicles” (priority 2008, dated 2016)

Tests used:
[1] = tested on: primordial follicles in cultured mouse ovaries; test: Culture of postnatal day 4 mouse ovaries with PTEN inhibitor, morphological analysis; type: cell-based; details: postnatal day 4 mouse ovaries cultured for 8 days, 10 μM inhibitor vs. carrier
Description: Postnatal day 4 mouse ovaries containing primordial follicles were cultured for 8 days with carrier (A) or PTEN inhibitor bpv (Hopic) (B).
Postnatal day 4 mouse ovaries were removed aseptically and the whole ovary was cultured in a Cell Strainer (40 μm pore size) (BD Biosciences, Stockholm, Sweden) in 1 ml alpha-MEM medium (Gibco-BRL) supplemented with 28 mM ascorbic acid and 0.3% (w/v) BSA, with or without 10 μM of the PTEN inhibitor bpV-HOpic (Dipotassium Bisperoxo(5-hydroxypyridine-2-carboxyl)oxovanadate (V), K2[VO(O2)2C6H4NO3]). The cultured ovaries were incubated in a humidified incubator (5% CO2, 37° C.) with one-third of the medium exchanged for fresh medium every day for the duration of the culture period. For fixation, the ovaries were washed once in PBS and fixed overnight in 4% paraformaldehyde, and embedded for morphological analysis.

[2] = tested on: Akt; test: Western blot of Akt activation (p-Akt, serine 473) in oocytes after Kit ligand treatment; type: cell-based, mouse; details: 100 ng/ml, 2 min; PD12-14 Pten loxP/loxP; GCre+ oocytes vs. control oocytes
Description: Oocytes were isolated from ovaries of Pten^loxP/loxP; GCre+ and Pten^loxP/loxP mice at PD5 and PD12-14, and western blots were performed (A) Levels of p-Akt (serine 473) and total Akt in PD12-14 Pten^loxP/loxP; GCre+ and Pten^loxP/loxP oocytes. (B) Activation of Akt (p-Akt, serine 473) by Kit ligand (KL) treatment (100 ng/ml, 2 min) in PD12-14 Pten^loxP/loxP; GCre+ and Pten^loxP/loxP oocytes. Levels of Akt were used as internal controls. (C) Signaling studies in Pten^loxP/loxP; GCre+ and Pten^loxP/loxP oocytes at PD5 and PD12-14, showing levels of p-Akt (serine 473), rpS6, p-rpS6 (serine 235/6), p-mTOR (serine 2448), p-TSC2 (threonine 1462), and p-S6K (threonine 389). Levels of total Akt, mTOR, TSC2, S6K, and β-actin were used as internal controls. All experiments were repeated at least 3 times. For isolation of PD5 oocytes for western blot, 10-15 Pten^loxP/loxP; GCre+ or Pten^loxP/loxP mice were used for each lane. For isolation of PD12-14 oocytes, 3-5 Pten^loxP/loxP^P; GCre+ mice or 6-10 Pten^loxP/loxP mice were used per lane. In each lane, 30-40 μg of protein sample was loaded.
Thus, activation of the pool of primordial follicles ends up with follicle depletion. This causes POF (premature ovarian failure) in Pten^loxP/loxP; GCr+ mice. The phenotype observed in these mice resembles that of human POF (Beck-Peccoz and Persani, Orphanet. J. Rare. Dis. 2006, 1: 9). […]

| Molecule | proliferation and differentiation of flattened pre-granulosa cells into cuboidal granulosa cells [1] | survival rate of follicles in the cultured ovaries [1] | activation of Akt (p-Akt, serine 473) [2] |
| --- | --- | --- | --- |
| Dipotassium Bisperoxo(5-hydroxypyridine-2-carboxyl)oxovanadate (V) [bpV-HOpic] | stimulates the proliferation and differentiation of flattened pre-granulosa cells | enhances the survival rate of follicles | – |
| Kit ligand (KL): Kit ligand, activates the PI3K pathway in growing oocytes through its oocyte surface receptor Kit (protein, UniProt P20826 26-190, looked up) Soluble KIT ligand: KEICGNPVTDNVKDITKLVANLPNDYMITLNYVAGMDVLPSHCWLRDMVIQLSLSLTTLLDKFSNISEGLSNYSIIDKLGKIVDDLVLCMEENAPKNIKESPKRPETRSFTPEEFFSIFNRSIDAFKDFMVASDTSDCVLSSTLGPEKDSRVSVTKPFMLPPVAA | – | – | activated Akt to a greater extent |
